Test results from patent EP4563573A1, “COMPOUND, AND PREPARATION METHOD THEREFOR AND USE THEREOF IN PREPARATION OF SEH INHIBITOR AND PPARS AGONIST” (Shenyang Pharmaceutical University, priority 2023, dated 2024).
Read-outs that look alike come from different tables or passages of the source.

Assays:
[1] = tested on: CFA-induced AIA mouse model; settings: C57BL/6 mice, oral gavage
[2] = tested on: L-arginine-induced acute pancreatitis model; settings: 5 mg/kg, n=5
Text: Pathological changes were studied on H&E stained pancreatic sections (FIG. 17).
Specifically, panel (A) represents edema, panel (B) represents inflammatory cells (mononuclear and polymorphonuclear cells), panel (C) represents parenchymal atrophy, and panel (D) represents the total score (edema, mononuclear cell, polymorphonuclear cell, and parenchymal atrophy) (n=5 for each group) *p<0.05, **p<0.01 vs Mod.

chronic granuloma model = settings: rats, 20 mg/kg oral gavage once a day for 7 days (medium-dose; celecoxib group)
Protocol: After the animals were anesthetized by isoflurane inhalation, cotton balls of about 50 mg were buried in the groin of the rats on both sides. The surgical procedure was strictly conducted aseptically. Penicillin was injected intraperitoneally for anti-inflammatory treatment after surgery. Before administration, different drugs were prepared into a concentration of 0.5 mg/mL with pure water in each group, and different test substances were administered by oral gavage at 10 mL/kg, 1 time a day for consecutive 7 days, while the model control group was administrated with an equal volume of pure water. After the last administration, the mice were anesthetized by isoflurane inhalation and then bled, and the cotton ball granuloma was removed and weighed to calculate the degree of swelling (wet weight of cotton ball granuloma - dry weight of cotton ball).
The significant figures of the test data were rounded off and statistical analysis was conducted in accordance with SOP. The software used for statistics was SPSS22.0. Measurement data were expressed as Mean ± standard deviation (x ± s), and Leven's test was used to test normality and homogeneity of variance. If there was no statistical significance (P>0.05), statistical analysis was done using one-factor ANOVA. If ANOVA was statistically significant (P≤0.05), LSD test (parametric method) was used for comparative analysis. […]

[3] = tested on: CFA-induced rheumatoid arthritis model
Protocol: Except for the normal group, the animals in the other groups were injected with 25 µL/mouse of CFA at the bottom of right feet. Different drugs were prepared with pure water to the corresponding concentrations before administration. 30 min after modeling, different test substances were administrated to the animals in each group by oral gavage at 20 mL/kg, 1 time on the same day. The normal control group and the model control group were given the same volume of pure water. […] On the 20th day after modeling, all model animals were regrouped according to the joint index score and administrated with 20 mL/kg by oral gavage 1 time daily for consecutive 7 days. The joint index score of each group was determined on the 3rd and 7th days after administration, and the pain threshold of the animals was tested with a hot plate instrument after the last administration.
The significant figures of the test data were rounded off and statistical analysis was conducted in accordance with SOP. The software used for statistics was SPSS22.0. Measurement data were expressed as Mean ± standard deviation (x ± s), and Leven's test was used to test normality and homogeneity of variance. If there was no statistical significance (P>0.05), statistical analysis was done using one-factor ANOVA. If ANOVA was statistically significant (P≤0.05), LSD test (parametric method) was used for comparative analysis. If variance was unequal (P≤0.05), the Kruskal-Wallis test was used. If the Kruskal-Wallis test was statistically significant (P≤0.05), Dunnett's Test (nonparametric method) was used for comparative analysis.

murine sEH (MsEH) = target: T1, murine sEH (MsEH) (Mus musculus, UniProt P34914); experiment: biochemical
T1 sequence (P34914 1-554): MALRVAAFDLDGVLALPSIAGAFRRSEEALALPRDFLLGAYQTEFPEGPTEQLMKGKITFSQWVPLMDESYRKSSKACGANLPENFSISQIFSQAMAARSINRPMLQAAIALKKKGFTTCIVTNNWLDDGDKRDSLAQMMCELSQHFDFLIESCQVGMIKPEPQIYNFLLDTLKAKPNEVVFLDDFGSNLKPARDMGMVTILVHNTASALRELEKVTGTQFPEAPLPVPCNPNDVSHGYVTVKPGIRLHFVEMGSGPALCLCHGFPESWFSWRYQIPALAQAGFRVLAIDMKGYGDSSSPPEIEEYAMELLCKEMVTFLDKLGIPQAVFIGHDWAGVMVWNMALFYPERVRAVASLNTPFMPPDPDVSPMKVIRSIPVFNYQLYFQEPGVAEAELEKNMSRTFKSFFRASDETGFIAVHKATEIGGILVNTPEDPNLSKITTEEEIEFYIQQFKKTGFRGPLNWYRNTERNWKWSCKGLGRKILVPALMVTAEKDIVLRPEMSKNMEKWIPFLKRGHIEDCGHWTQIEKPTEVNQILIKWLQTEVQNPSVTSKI
Protocol: (§2) Detection principle: a specific substrate, (3-phenyl-oxy)-acetic acid cyano-(6-methoxy-naphthalen-2-yl) methyl ester, namely PHOME, is non-fluorescent but can be hydrolyzed under the action of sEH enzyme to generate a product 6-methoxy-2-naphthaldehyde. […] Based on the above principle, the inhibition rates of samples with different concentrations were calculated compared with the positive control group. The IC50 value of the compound was calculated based on the inhibition rate and concentration using SPSS 20 software.
(§3) PHOME solution: 0.79 mg PHOME was dissolved in 106 µL DMSO to obtain a 20 mM PHOME solution, which was diluted to 1/3 mM with Tris-HCl buffer when used.
(§4) sEH solution: sEH (5 mg/mL) stock solution was stored in a -80°C refrigerator and diluted to 4 µg/mL with 25 mM Tris-HCl buffer when used.
(§5) A sample powder to be tested was dissolved in DMSO to a 20 mM solution, stored in a - 20°C refrigerator for later use, and diluted with Tris-HCl buffer to the corresponding concentration when used.
(§6) Experimental design: solvent group, 100% activity group (A), inhibitor group (B), positive control group (C), as shown in Table 1.
(§7) Three replicate wells were set for each sample, and the average of the three replicate wells was the fluorescence value (F) of the compound to be tested. […] The IC50 value of the compound was calculated based on the inhibition rate and concentration using SPSS 20 software.
(§8) The activity of the compounds was evaluated using a biochemical method with [cyano-(6-methoxynaphthalen-2-yl)methyl] 2-(3-phenyloxiran-2-yl)acetate (PHOME) as a substrate using recombinant human sEH (HsEH) and murine sEH (MsEH).

[4] = tested on: CFA-induced AIA mouse model; experiment: CFA-induced AIA mouse model, intraperitoneal injection; type: in vivo; settings: female KM mice, compared with celecoxib-10 mg/kg
Protocol: (§1) The pain threshold of AIA mice was tested by the hot plate method. […] A curve of the increase in pain threshold over time was plotted (panel (B) in FIG. 10), and the AUC value of the percentage increase in pain threshold was obtained (panel (C) in FIG. 10). […] Finally, the thickness of the paws of the AIA mouse model at different time points after compound injection was evaluated and compared with the thickness of the mouse paws before modeling, and the swelling reduction rate of the mouse paws was calculated.
as §1, with “11),” for “10),”, “11).” for “10).”

LPS-induced sepsis model = experiment: LPS-induced sepsis model; type: in vivo, Male C57BL/6 mice; settings: LPS 25 mg/kg i.p., administration 4 h after modeling, twice at 8 h interval, n=7
Protocol: The drug was administered twice, with an interval of 8 h between administrations.

[5] = Stability of liver microsomes; settings: for Average concentration in microsomal buffer: Rat; for half-life: rat, microsomes
Text: Table 5 Average concentration of SP-B07 in microsomal buffer at different time points (ng/mL)

[6] = target: T2, recombinant human sEH (HsEH) (Homo sapiens, UniProt P34913)
T2 sequence (P34913 1-555): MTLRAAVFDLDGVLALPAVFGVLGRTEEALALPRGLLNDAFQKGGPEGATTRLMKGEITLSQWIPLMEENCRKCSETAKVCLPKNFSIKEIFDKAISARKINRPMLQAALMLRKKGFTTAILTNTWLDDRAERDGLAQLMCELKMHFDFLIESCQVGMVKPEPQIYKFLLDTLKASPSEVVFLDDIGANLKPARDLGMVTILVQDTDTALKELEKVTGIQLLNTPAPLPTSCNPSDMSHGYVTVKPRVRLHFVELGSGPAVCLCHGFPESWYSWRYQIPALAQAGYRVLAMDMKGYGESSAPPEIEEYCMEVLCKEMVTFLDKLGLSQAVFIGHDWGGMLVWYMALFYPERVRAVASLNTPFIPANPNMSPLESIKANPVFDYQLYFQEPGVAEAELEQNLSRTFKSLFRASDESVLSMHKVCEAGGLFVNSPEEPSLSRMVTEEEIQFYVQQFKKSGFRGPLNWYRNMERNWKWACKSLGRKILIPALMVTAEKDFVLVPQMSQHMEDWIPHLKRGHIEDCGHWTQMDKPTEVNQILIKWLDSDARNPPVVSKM
Protocol: as §2, §3, §4, §5, §6, §7, §8

[7] = tested on: CD60 diet + streptozotocin-induced diabetes; experiment: CD60 feed + streptozotocin-induced diabetes model; type: in vivo, male C57BL/6 mice; settings: SP compounds 30 and 90 mg/kg; pioglitazone 3 mg/kg
Text: Diabetes is a chronic metabolic disease characterized by elevated blood glucose, and its incidence has been increasing over the past few decades. There is no desirable therapeutic drug at present, and the research on drugs for the treatment of diabetes and its related complications such as diabetic pain is highly urgent. […] Compared with the Control group, ****P<0.0001, ***P<0.001, **P<0.01 and *P<0.05.

[8] = Pharmacokinetics after intravenous and oral administration
Protocol: Blood levels were measured within 8 hours after oral administration. […] Table 7 PK of SP-B07 after intravenous and oral administration in rats (n=3)

PPARγ = target: T3, PPARγ (Homo sapiens, UniProt P37231); experiment: PPARγ agonist activity test (luciferase reporter gene); type: cell-based
T3 sequence (P37231 204-505): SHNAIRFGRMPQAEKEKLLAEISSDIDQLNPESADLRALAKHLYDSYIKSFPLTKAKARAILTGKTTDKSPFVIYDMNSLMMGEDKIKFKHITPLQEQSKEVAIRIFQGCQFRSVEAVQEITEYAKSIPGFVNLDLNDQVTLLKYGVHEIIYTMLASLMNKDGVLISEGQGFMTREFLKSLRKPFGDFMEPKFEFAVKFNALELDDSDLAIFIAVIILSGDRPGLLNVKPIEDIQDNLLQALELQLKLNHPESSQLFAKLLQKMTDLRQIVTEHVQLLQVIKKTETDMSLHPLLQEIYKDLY
Text: • 1. PPARγ agonist activity test Detection principle: when pM-hPPAR binds to the appropriate ligand, and is activated and binds to the GAL4DNA binding site in the plasmid pB4-RES-tk-luc, thereby initiating the expression of the downstream luciferase reporter gene. The amount of luciferase is detected to determine whether the compound to be tested is a PPAR agonist. • 2.

[9] = Plasma protein binding rate (equilibrium dialysis); settings: rat
Protocol: The plasma protein binding rate (%PPB) of SD rats was measured by classical equilibrium dialysis apparatus.

[10] = 30 mg/kg oral gavage (medium-dose; celecoxib group), 0.5 h after administration
[11] = 30 mg/kg oral gavage (medium-dose; celecoxib group), 2 h after administration
[12] = 30 mg/kg oral gavage (medium-dose; celecoxib group), 4 h after administration

Q: For `Cc1ccc(-c2cc(C(F)(F)F)nn2-c2ccc(S(N)(=O)=O)cc2)cc1` [Celecoxib, celecoxib], which “time after administration at which the pain threshold began to rise” value [1] is on record?
A: 30 min

Q: What about the “pancreatic injury histological score” value [2] of the same compound?
A: 3.50±1.80

Q: What about the Swelling degree (chronic granuloma model) of the same compound?
A: 0.9904±0.12++

Q: And the “Pain threshold in acute inflammatory state” value ([3]; 30 mg/kg group (medium-dose; celecoxib group), Before administration)?
A: 20.7±4.2

Q: And the “Pain threshold in chronic inflammatory state” value ([3]; 30 mg/kg oral gavage (medium-dose; celecoxib group), once daily for 7 days, End of administration)?
A: 13.7±4.6

Q: And the “Acute pain threshold increase rate of mice” value [3, 10]?
A: -35.2±29.8%

Q: And the “Pain threshold in acute inflammatory state” value [3, 10]?
A: 13.2±6.3

Q: What about the “Acute pain threshold increase rate of mice” value ([3]; 30 mg/kg oral gavage (medium-dose; celecoxib group), 1 h after administration) of the same compound?
A: -52.3±55.5%

Q: And the “Acute pain threshold increase rate of mice” value [3, 11]?
A: 34.52±54.1 %

Q: And the “Pain threshold in acute inflammatory state” value [3, 11]?
A: 23.9±5.3

Q: And the “Acute pain threshold increase rate of mice” value [3, 12]?
A: -11.6±32.6 %

Q: What about the “Pain threshold in acute inflammatory state” value [3, 12] of the same compound?
A: 18.7±6.0

Q: With `O=C(Nc1ccc(OC(F)(F)F)c(F)c1)NC1CCC(Oc2ccc(C=C3SC(=O)NC3=O)cc2)CC1` (centres unmarked) [SP-B07, 1-((1r,4r)-4-{4-[(E)-(2,4-dioxothiazolidin-5-ylidene)methyl]phenoxy}cyclohexyl)-3-[3-fluoro-4-(trifluoromethoxy)phenyl]urea] as the compound, how does the IC50 (murine sEH (MsEH)) read?
A: 0.42 nM

Q: What about the “analgesic effect (percentage increase in pain threshold, hot plate method)” value [4] of the same compound?
A: better than that of celecoxib

Q: And the “detumescence rate on mouse paws (swelling reduction rate)” value [4]?
A: superior to celecoxib

Q: What about the “increase of the survival rate” value (LPS-induced sepsis model) of the same compound?
A: 42.8%

Q: What about the “Average concentration in microsomal buffer” value (“Average concentration” for short) ([5]; 0 min) of the same compound?
A: 100 ng/mL

Q: And the “Average concentration” value ([5]; 10 min)?
A: 86.26 ng/mL

Q: And the “Average concentration” value ([5]; 60 min)?
A: 58.82 ng/mL

Q: What about the “Average concentration” value ([5]; 120 min) of the same compound?
A: 57.01 ng/mL

Q: What about the “Average concentration” value ([5]; 240 min) of the same compound?
A: 55.61 ng/mL

Q: What about the “Average concentration” value ([5]; 360 min) of the same compound?
A: 52.33 ng/mL

Q: What about the “Average concentration” value ([5]; 720 min) of the same compound?
A: 43.73 ng/mL

Q: And the half-life ([5]; half-life (t1/2) in rat liver microsomes, rat liver microsomes)?
A: 5.5 h

Q: What about the half-life ([5]; t1/2, rat liver microsomes, table) of the same compound?
A: 5.5 h

Q: What about the IC50 [6] of the same compound?
A: 0.06 nM

Q: And the “lowering blood glucose and improving diabetic neuropathic pain” value [7]?
A: effective

Q: And the AUC(0-inf) ([8]; rat, in vivo, iv, 10 mg/kg)?
A: 16.9 µM·h

Q: What about the AUC(0-t) at 8 h ([8]; rat, in vivo, iv, 10 mg/kg) of the same compound?
A: 14.1 µM·h

Q: And the Cmax ([8]; rat, in vivo, iv, 10 mg/kg)?
A: 3290 nM

Q: And the Tmax ([8]; rat, in vivo, iv, 10 mg/kg)?
A: 0.083 h

Q: And the Vd ([8]; rat, in vivo, iv, 10 mg/kg)?
A: 3.71 L/kg

Q: And the clearance ([8]; rat, in vivo, iv, 10 mg/kg)?
A: 13.2 mL/min/kg

Q: What about the half-life ([8]; rat, in vivo, iv, 10 mg/kg, t1/2, rats, i.v. 10 mg/kg) of the same compound?
A: 1.91 h

Q: What about the AUC(0-inf) ([8]; rat, in vivo, po, 50 mg/kg) of the same compound?
A: 17.7 µM·h

Q: And the AUC(0-t) at 8 h ([8]; rat, in vivo, po, 50 mg/kg)?
A: 13.8 µM·h

Q: And the Cmax ([8]; rat, in vivo, po, 50 mg/kg)?
A: 1140 nM

Q: And the Tmax ([8]; rat, in vivo, po, 50 mg/kg)?
A: 0.5 h

Q: What about the bioavailability ([8]; rat, in vivo, po, 50 mg/kg) of the same compound?
A: 19.5%

Q: What about the “time at which maximum concentration was reached after intravenous injection” value ([8]; rats, i.v. 10 mg/kg) of the same compound?
A: 2 min

Q: And the t1/2 ([8]; rats, i.v. 10 mg/kg, 10 mg/kg)?
A: 3.26 h

Q: And the EC50 (PPARγ)?
A: 1430 nM

Q: What about the “PPARγ (compared with Rosiglitazone, %)” value (PPARγ; relative to Rosiglitazone) of the same compound?
A: 19.3%

Q: And the fraction unbound [9]?
A: 0.0471
